Measured values published in paper PMC6792352, “Limited Chemical Structural Diversity Found to Modulate Thyroid Hormone Receptor in the Tox21 Chemical Library” (Environmental Health Perspectives, 2019).
Where a name gives a salt, the structure may show the parent alone.

Assay: in vitro
Settings: rat, gh3-tre-luc cells

Which CC50 at 24 h (AC50 (uM) modified / 1000) does the source give for `Nc1ccc2c3c(cccc13)-c1ccccc1-2` [3-Aminofluoranthene] here?
Its CC50 at 24 h is greater than 90 µM.

With `CCCCN(CCO)CCO` [N-Butyldiethanolamine] as the compound, how does the CC50 at 24 h (AC50 (uM) modified / 1000) read?
Its CC50 at 24 h is greater than 90 µM.

Which CC50 at 24 h (AC50 (uM) modified / 1000) does the source give for `Cc1cccc(C)c1OCC(C)N` (stereo not shown) [Mexiletene hydrochloride] here?
Its CC50 at 24 h is greater than 50 µM.

With `CC(N)Cc1ccc(O)cc1` (stereo not shown) [Hydroxyamphetamine hydrobromide] as the compound, how does the CC50 at 24 h (AC50 (uM) modified / 1000) read?
The CC50 at 24 h was greater than 50 µM.

Which CC50 at 24 h (AC50 (uM) modified / 1000) does the source give for `CCCCCCCCCCCCCCCC(=O)OC[C@@H](COP(=O)([O-])OCC[N+](C)(C)C)OC(=O)CCCCCCCCCCCCCCC` here?
The CC50 at 24 h was greater than 50 µM.

Which CC50 at 24 h (AC50 (uM) modified / 1000) does the source give for `CC1(C)Cc2cccc(N)c2O1` [2,2-Dimethyl-2,3-dihydro-1-benzofuran-7-amine] here?
Its CC50 at 24 h is greater than 90 µM.

With `O=C1NCN(c2ccccc2)C12CCN(CCCC(c1ccc(F)cc1)c1ccc(F)cc1)CC2` [Fluspirilene] as the compound, how does the CC50 at 24 h (AC50 (uM) modified / 1000) read?
The CC50 at 24 h was 4.02 µM.

For `CC1(C)C(=O)N(Br)C(=O)N1Cl` [3-Bromo-1-chloro-5,5-dimethylhydantoin], which CC50 at 24 h (AC50 (uM) modified / 1000) is on record?
The CC50 at 24 h was greater than 90 µM.

For `CN1[C@@H]2CCC[C@H]1C[C@@H](NC(=O)c1nn(C)c3ccccc13)C2` [Granisetron hydrochloride], which CC50 at 24 h (AC50 (uM) modified / 1000) is on record?
Its CC50 at 24 h is greater than 50 µM.

For `NC[C@H]1O[C@H](O[C@H]2[C@H](O)[C@@H](O[C@H]3O[C@H](CO)[C@@H](O)[C@H](N)[C@H]3O)[C@H](N)C[C@@H]2N)[C@H](N)[C@@H](O)[C@@H]1O` [Bekanamycin sulfate], which CC50 at 24 h (AC50 (uM) modified / 1000) is on record?
Its CC50 at 24 h is greater than 50 µM.

For `O=[N+]([O-])c1ccc(CBr)cc1` [4-Nitrobenzylbromide], which CC50 at 24 h (AC50 (uM) modified / 1000) is on record?
Its CC50 at 24 h is greater than 100 µM.

For `CCOc1ccccc1C(N)=O` [2-Ethoxybenzamide], which CC50 at 24 h (AC50 (uM) modified / 1000) is on record?
Its CC50 at 24 h is greater than 90 µM.

For `C=CCN(CC=C)CC=C` [Triallylamine], which CC50 at 24 h (AC50 (uM) modified / 1000) is on record?
Its CC50 at 24 h is greater than 90 µM.

For `C#CC1(O)CCCCC1` [1-Ethynylcyclohexanol], which CC50 at 24 h (AC50 (uM) modified / 1000, Tox21_110001=Tox21_302106, viability, 1 nM T3 present, 24 h) is on record?
The CC50 at 24 h was greater than 90 µM.

With `N[C@@H](C(=O)N[C@@H]1C(=O)N2C(C(=O)O)=C(Cl)CC[C@H]12)c1ccccc1` [Loracarbef monohydrate] as the compound, how does the CC50 at 24 h (AC50 (uM) modified / 1000) read?
Its CC50 at 24 h is greater than 50 µM.

Which CC50 at 24 h (AC50 (uM) modified / 1000) does the source give for `CC(C)NC(=O)c1ccccc1N` [2-Amino-N-(1-methylethyl)benzamide] here?
The CC50 at 24 h was greater than 90 µM.

With `CON(C)C(=O)Nc1ccc(Cl)cc1` [Monolinuron] as the compound, how does the CC50 at 24 h (AC50 (uM) modified / 1000, Tox21_110001=Tox21_301360, viability, 1 nM T3 present, 24 h) read?
The CC50 at 24 h was greater than 90 µM.

Which CC50 at 24 h (AC50 (uM) modified / 1000) does the source give for `Clc1nc(Cl)c(Cl)c(Cl)c1Cl` [Pentachloropyridine] here?
Its CC50 at 24 h is greater than 90 µM.

Which CC50 at 24 h (AC50 (uM) modified / 1000) does the source give for `CCCOC(=O)c1ccc(O)cc1` [Propylparaben] here?
The CC50 at 24 h was greater than 90 µM.

With `CCCCOCC(C)O` (stereo not shown) [1-Butoxy-2-propanol] as the compound, how does the CC50 at 24 h (AC50 (uM) modified / 1000) read?
Its CC50 at 24 h is greater than 90 µM.

For `COC(=O)c1sccc1S(N)(=O)=O` [Methyl 3-sulfamoylthiophene-2-carboxylate], which CC50 at 24 h (AC50 (uM) modified / 1000) is on record?
Its CC50 at 24 h is greater than 90 µM.

Which CC50 at 24 h (AC50 (uM) modified / 1000) does the source give for `Nc1ccc2c(O)cc(S(=O)(=O)O)cc2c1` [7-Amino-4-hydroxynaphthalene-2-sulfonic acid] here?
The CC50 at 24 h was 89.3 µM.

With `CC(C)=CCCC(C)CCOC=O` (stereo not shown) [3,7-Dimethyloct-6-en-1-yl formate] as the compound, how does the CC50 at 24 h (AC50 (uM) modified / 1000) read?
Its CC50 at 24 h is greater than 90 µM.

With `CNC[C@@H]1CC[C@@H](N)[C@@H](O[C@H]2[C@H](O)[C@@H](O[C@H]3OC[C@](C)(O)[C@H](NC)[C@H]3O)[C@H](N)C[C@@H]2N)O1` [Micronomicin sulfate] as the compound, how does the CC50 at 24 h (AC50 (uM) modified / 1000) read?
The CC50 at 24 h was greater than 50 µM.

For `NC(=O)c1cccnc1` [Niacinamide], which CC50 at 24 h (AC50 (uM) modified / 1000) is on record?
Its CC50 at 24 h is greater than 90 µM.

With `CC(C)(c1cc(Br)c(OCC(Br)CBr)c(Br)c1)c1cc(Br)c(OCC(Br)CBr)c(Br)c1` (stereo not shown) [Tetrabromobisphenol A-bis(2,3-dibromopropyl ether)] as the compound, how does the CC50 at 24 h (AC50 (uM) modified / 1000) read?
Its CC50 at 24 h is greater than 50 µM.

For `CNN` [Methylhydrazine sulfate], which CC50 at 24 h (AC50 (uM) modified / 1000) is on record?
Its CC50 at 24 h is greater than 90 µM.

For `Cc1ccc(O)c(C(=O)c2ccccc2)c1` [2-Hydroxy-5-methylbenzophenone], which CC50 at 24 h (AC50 (uM) modified / 1000) is on record?
Its CC50 at 24 h is greater than 90 µM.

For `BrCCCCCCBr` [1,6-Dibromohexane], which CC50 at 24 h (AC50 (uM) modified / 1000, Tox21_110001=Tox21_302059, viability, 1 nM T3 present, 24 h) is on record?
The CC50 at 24 h was greater than 90 µM.

For `Nc1ccccc1S(=O)(=O)c1ccccc1` [2-(Phenylsulfonyl)aniline], which CC50 at 24 h (AC50 (uM) modified / 1000) is on record?
The CC50 at 24 h was greater than 90 µM.

Which CC50 at 24 h (AC50 (uM) modified / 1000) does the source give for `CC(C)c1ccccc1` [Cumene] here?
Its CC50 at 24 h is greater than 100 µM.

With `COC(C)(C)CCC[C@H](C)C/C=C/C(C)=C/C(=O)OC(C)C` [S-Methoprene] as the compound, how does the CC50 at 24 h (AC50 (uM) modified / 1000) read?
Its CC50 at 24 h is 70.9 µM.

For `O=C(O)Cc1ccccc1Nc1c(Cl)cccc1Cl` [Diclofenac sodium], which CC50 at 24 h (AC50 (uM) modified / 1000) is on record?
Its CC50 at 24 h is greater than 90 µM.

Which CC50 at 24 h (AC50 (uM) modified / 1000) does the source give for `C=COC(=O)C(C)(C)CCCCCC` [Vinyl neodecanoate] here?
The CC50 at 24 h was greater than 90 µM.
